From US20030176454A1, “N-coating heterocyclic compounds” (priority 2000, published 2003)

melting point [°C]	Compound
60 to 65	Cn1cncc1-c1cccc(Nc2ccc3ccccc3n2)c1 [Example 34, [3-(1-methyl-imidazol-5-yl)-phenyl]-(quinolin-2-yl)-amine]
208 to 209	Cn1cncc1-c1cccc(Nc2nccc3ccccc23)c1 [Example 35, [3-(1-methyl-imidazol-5-yl)-phenyl]-(isoquinolin-1-yl)-amine]
214 to 217	c1ccc(Cc2nnc(Nc3cccc(-n4ccnc4)c3)c3ccccc23)cc1 [Example 36, (4-Benzyl-phthalazin-1-yl)-(3-imidazol-1-yl-phenyl)-amine]
223 to 226	c1cc(Nc2nnc3c4c(cccc24)-c2ccccc2-3)cc(-n2ccnc2)c1 [Example 39, (Indeno[1,2,3-de]phthalazin-3-yl)-[3-(imidazol-1-yl)-phenyl]-amine]
164 to 167	c1cc(Nc2nccc3ccccc23)cc(-n2ccnc2)c1 [Example 44, [3-(Imidazol-1-yl)-phenyl]-(isoquinolin-1-yl)-amine]
135 to 137	c1cc(Nc2nncc3ccccc23)cc(-n2ccnc2)c1 [Example 45, [3-(Imidazol-1-yl)-phenyl]-(phthalazin-1-yl)-amine]
235 to 237	Cc1ncc(-c2cccc(Nc3ncnc4c3CCOc3ccccc3-4)c2)n1C [Example 86, N-[3-(1,2-dimethyl-1H-imidazol-5-yl)phenyl]-5,6-dihydro[1]benzoxepino[5,4-d]pyrimidin-4-amine]
152 to 156	c1cc(Nc2ccc(-n3cccc3)cn2)cc(-n2ccnc2)c1 [Example 87, N-[3-(imidazol-1-yl)phenyl]-N-[5-(pyrrol-1-yl)pyridin-2-yl]-amine]

Second part, the compound before the results:

Compound	melting point [°C]
I.N=C(Nc1cccc(Nc2nnc3c4c(cccc24)-c2ccccc2-3)c1)c1ccccc1	183 to 186
CS(=O)(=O)O.N=C(Nc1cccc(Nc2noc3ccccc23)c1)c1ccccc1 [Example 25, N-[3-(benzo[d]isoxazol-3-ylamino)phenyl]benzamidine methanesulfonate]	113 to 115
c1ccc2c(NCCCCNc3nccc4ccccc34)nccc2c1 [Example 37, N,N′-Di(isoquinolin-1-yl)-butane-1,4-diamine]	189 to 192
c1ccc2c(N[C@H]3CC[C@H](Nc4nccc5ccccc45)CC3)nccc2c1 [Example 38, N,N′-Di(isoquinolin-1-yl)-transcyclohexane-1,4-diamine]	278 to 280
c1cc(CNc2nccc3ccccc23)cc(Nc2nnc3c4c(cccc24)-c2ccccc2-3)c1 [Example 40, (Indeno[1,2,3-de]phthalazin-3-yl)-[3-(isoquinolin-1-ylaminomethyl)-phenyl]-amine]	149 to 152
c1ccc2c(c1)-c1cccc3c(NCCCCNc4nccc5ccccc45)nnc-2c13 [Example 46, N-(Indeno[1,2,3-de]phthalazin-3-yl)-N′-(isoquinolin-1-yl)-butane-1,4-diamine]	95 to 105
